We go through one compound from US8431747B2, “Process for the preparation of monomers for polybenzimidazole materials” (E I du Pont de Nemours and Company, priority 2008, dated 2013).

This data set is described as follows: solubility of TAT salt in water. It is filed as physicochemical. As to conditions: 25° C. The method, then: The reaction mixture containing the precipitated TAT salt is then cooled to about 5° C. to about 15° C. and stirred, then filtered. The TAT salt is then washed 44. It may be washed with deaerated aqueous acid, such as HCl (33%), and then optionally with deaerated ethanol or methanol to produce a wet cake material. The used acid can then be distilled and recycled (31, 30, 33). […] Using an agitated filter unit during the wash procedures can allow for a reduction of the wash volumes. Under such circumstances, using small amounts of cold (e.g., about 5° C.) water instead of the aqueous acid would be effective; cold water would be used because of lower solubility of the TAT salt in cold water versus, e.g., room temperature. For example, the solubility of TAT.4HCl in water at 25° C. is about 16 wt %.

Structures can show the parent of a compound that is named as a salt.

As for `Cc1c(N)c(N)cc(N)c1N` [TAT.4HCl, 2,3,5,6-tetraaminotoluene salt], the solubility in water result is given as “about 16 wt %”.
